Columns and labels:
Format in all cases: functional
Pyricularia oryzae [1] = assay: Fungicidal activity against Magnaporthe oryzae assessed as rice blast disease control at 31.3 ppm foliar application for 24 hr before inoculation at 27 +/- 2 degC measured after 5 days by preventive manner
Podosphaera fuliginea [2] = assay: Fungicidal activity against Podosphaera fuliginea assessed as cucumber powdery mildew control at 2 ppm foliar application 24 hr before inoculation at 23 +/- 2 degC by preventive manner
Botrytis cinerea [3] = assay: Fungicidal activity against Botryotinia fuckeliana assessed as cucumber gray mold disease control at 7.8 ppm foliar application […] at 22 +/- 2 degC by preventive manner
[4] = system: Blumeria graminis f. sp. tritici; assay: Fungicidal activity against Blumeria graminis f. sp. tritici assessed as wheat powdery mildew disease control at 2 ppm foliar application for 48 hr before inoculation by preventive manner
Thanatephorus cucumeris [5] = assay: Fungicidal activity against Thanatephorus cucumeris assessed as rice sheath blight disease control at 125 ppm foliar application for 24 hr before inoculation at 26 +/- 2 degC measured after 5 days by preventive manner
[6] = system: Pseudoperonospora cubensis; assay: Fungicidal activity against Pseudoperonospora cubensis assessed as cucumber downy mildew disease control at 125 ppm foliar application 24 hr before inoculation onto the abaxial(untreated) surface of leaf by preventive manner
[7] = system: Pseudoperonospora cubensis; assay: Fungicidal activity against Pseudoperonospora cubensis assessed as cucumber downy mildew disease control at 2 ppm foliar application 24 hr before inoculation onto the adaxial(treated) surface of leaf by preventive manner
Pyricularia oryzae [8] = assay: Fungicidal activity against Magnaporthe oryzae assessed as rice blast disease control at 125 ppm foliar application for 24 hr before inoculation at 27 +/- 2 degC measured after 5 days by preventive manner
Podosphaera fuliginea [9] = assay: Fungicidal activity against Podosphaera fuliginea assessed as cucumber powdery mildew control at 125 ppm foliar application 24 hr before inoculation at 23 +/- 2 degC by preventive manner
[10] = system: Blumeria graminis f. sp. tritici; assay: Fungicidal activity against Blumeria graminis f. sp. tritici assessed as wheat powdery mildew disease control at 125 ppm foliar application for 48 hr before inoculation by preventive manner
Botrytis cinerea [11] = assay: Fungicidal activity against Botryotinia fuckeliana assessed as cucumber gray mold disease control at 125 ppm foliar application […] at 22 +/- 2 degC by preventive manner
[12] = system: Pseudoperonospora cubensis; assay: Fungicidal activity against Pseudoperonospora cubensis assessed as cucumber downy mildew disease control at 7.8 ppm foliar application 24 hr before inoculation onto the adaxial(treated) surface of leaf by preventive manner
Botrytis cinerea [13] = assay: Fungicidal activity against Botryotinia fuckeliana assessed as cucumber gray mold disease control at 31.3 ppm foliar application […] at 22 +/- 2 degC by preventive manner
Podosphaera fuliginea [14] = assay: Fungicidal activity against Podosphaera fuliginea assessed as cucumber powdery mildew control at 7.8 ppm foliar application 24 hr before inoculation at 23 +/- 2 degC by preventive manner
[15] = system: Pseudoperonospora cubensis; assay: Fungicidal activity against Pseudoperonospora cubensis assessed as cucumber downy mildew disease control at 7.8 ppm foliar application 24 hr before inoculation onto the abaxial(untreated) surface of leaf by preventive manner
[16] = system: Blumeria graminis f. sp. tritici; assay: Fungicidal activity against Blumeria graminis f. sp. tritici assessed as wheat powdery mildew disease control at 7.8 ppm foliar application 48 24 hr before inoculation by preventive manner
[17] = system: Pseudoperonospora cubensis; assay: Fungicidal activity against Pseudoperonospora cubensis assessed as cucumber downy mildew disease control at 31.3 ppm foliar application 24 hr before inoculation onto the abaxial(untreated) surface of leaf by preventive manner
[18] = system: Pseudoperonospora cubensis; assay: Fungicidal activity against Pseudoperonospora cubensis assessed as cucumber downy mildew disease control at 125 ppm foliar application 24 hr before inoculation onto the adaxial(treated) surface of leaf by preventive manner
Podosphaera fuliginea [19] = assay: Fungicidal activity against Podosphaera fuliginea assessed as cucumber powdery mildew control at 31.3 ppm foliar application 24 hr before inoculation at 23 +/- 2 degC by preventive manner
Thanatephorus cucumeris [20] = assay: Fungicidal activity against Thanatephorus cucumeris assessed as rice sheath blight disease control at 31.3 ppm foliar application for 24 hr before inoculation at 26 +/- 2 degC measured after 5 days by preventive manner
[21] = system: Blumeria graminis f. sp. tritici; assay: Fungicidal activity against Blumeria graminis f. sp. tritici assessed as wheat powdery mildew disease control at 31.3 ppm foliar application for 48 hr before inoculation by preventive manner

| SMILES | Activity (Pyricularia oryzae [1]) | Activity (Botrytis cinerea [3]) | Activity (Thanatephorus cucumeris [5]) | Activity [6] | Activity [7] | Activity (Pyricularia oryzae [8]) | Activity [10] | Activity [12] | Activity (Podosphaera fuliginea [14]) | other results |
| --- | --- | --- | --- | --- | --- | --- | --- | --- | --- | --- |
| CNC(=O)/C(=N/OC)c1ccccc1COc1ccc(C)cc1 | 90% | 90% | <90% | <90% | 90% | – | – | – | – | Activity (Podosphaera fuliginea [2]): 90%; Activity [4]: 90% |
| CNC(=O)/C(=N/OC)c1ccccc1COc1ccc(C(=O)c2ccccc2)cc1 | – | 90% | <90% | <90% | – | 90% | 90% | – | – | Activity (Podosphaera fuliginea [9]): <90% |
| CNC(=O)/C(=N/OC)c1ccccc1COc1ccc(/C=C\c2ccccc2)cc1 | – | – | <90% | <90% | – | <90% | 90% | – | – | Activity (Podosphaera fuliginea [9]): <90%; Activity (Botrytis cinerea [11]): <90% |
| CNC(=O)/C(=N/OC)c1ccccc1COc1cccc([N+](=O)[O-])c1 | – | – | <90% | <90% | – | 90% | 90% | 90% | – | Activity (Podosphaera fuliginea [9]): <90% |
| C#CCOc1cccc(OCc2ccccc2/C(=N\OC)C(=O)NC)c1 | – | – | <90% | 90% | 90% | 90% | 90% | – | – | Activity (Podosphaera fuliginea [9]): 90%; Activity (Botrytis cinerea [13]): 90% |
| CNC(=O)/C(=N/OC)c1ccccc1COc1cccc(Br)c1 | – | 90% | <90% | – | 90% | 90% | – | – | 90% | Activity [15]: 90% |
| CNC(=O)/C(=N/OC)c1ccccc1COc1c(F)cccc1F | 90% | – | 90% | – | – | – | – | 90% | 90% | Activity [16]: 90%; Activity [17]: 90%; Activity (Botrytis cinerea [13]): 90% |
| CNC(=O)/C(=N/OC)c1ccccc1COc1cc(Cl)cc(Cl)c1 | – | 90% | <90% | – | 90% | 90% | – | – | 90% | Activity [16]: 90%; Activity [17]: 90% |
| CNC(=O)/C(=N/OC)c1ccccc1COc1ccc(Cl)c(Cl)c1 | 90% | 90% | <90% | – | – | – | – | 90% | – | Activity (Podosphaera fuliginea [2]): 90%; Activity [16]: 90%; Activity [17]: 90% |
| CNC(=O)/C(=N/OC)c1ccccc1COc1ccccc1F | 90% | 90% | 90% | – | – | – | – | 90% | 90% | Activity [15]: 90% |
| CNC(=O)/C(=N/OC)c1ccccc1COc1ccc(Br)cc1 | 90% | 90% | <90% | – | – | – | – | 90% | 90% | Activity [4]: 90%; Activity [17]: 90% |
| CNC(=O)/C(=N/OC)c1ccccc1COc1c(C)cccc1C | – | – | <90% | <90% | – | 90% | 90% | – | – | Activity (Podosphaera fuliginea [9]): 90%; Activity [18]: <90%; Activity (Botrytis cinerea [11]): 90% |
| CNC(=O)/C(=N/OC)c1ccccc1COc1cccc(F)c1 | 90% | – | 90% | – | – | – | – | 90% | – | Activity (Podosphaera fuliginea [19]): 90%; Activity [16]: 90%; Activity [15]: 90%; Activity (Botrytis cinerea [13]): 90% |
| CNC(=O)/C(=N/OC)c1ccccc1COc1c(C)ccc(C)c1C | – | – | <90% | 90% | – | 90% | <90% | – | – | Activity (Podosphaera fuliginea [9]): <90%; Activity [18]: <90%; Activity (Botrytis cinerea [11]): <90% |
| CNC(=O)/C(=N/OC)c1ccccc1COc1cc(C)c(C)cc1Cl | – | 90% | <90% | <90% | 90% | 90% | 90% | – | 90% | – |
| CNC(=O)/C(=N/OC)c1ccccc1COc1cc(F)ccc1F | 90% | 90% | – | – | 90% | – | – | – | 90% | Activity [4]: 90%; Activity (Thanatephorus cucumeris [20]): 90%; Activity [15]: 90% |

| SMILES | Activity (Pyricularia oryzae [1]) | Activity (Botrytis cinerea [3]) | Activity (Thanatephorus cucumeris [5]) | Activity [6] | Activity [7] | Activity (Pyricularia oryzae [8]) | Activity [10] | Activity [12] | Activity (Podosphaera fuliginea [14]) | other results |
| --- | --- | --- | --- | --- | --- | --- | --- | --- | --- | --- |
| CNC(=O)/C(=N/OC)c1ccccc1COc1cccc(Cl)c1 | 90% | 90% | – | – | 90% | – | – | – | 90% | Activity [16]: 90%; Activity (Thanatephorus cucumeris [20]): 90%; Activity [15]: 90% |
| CNC(=O)/C(=N/OC)c1ccccc1COc1cc(Cl)cc(Cl)c1Cl | – | 90% | <90% | <90% | 90% | <90% | – | – | – | Activity (Podosphaera fuliginea [2]): 90%; Activity [21]: 90% |
| C#CCOc1ccc(OCc2ccccc2/C(=N\OC)C(=O)NC)cc1 | 90% | 90% | <90% | – | – | – | 90% | 90% | 90% | Activity [17]: 90% |
| CNC(=O)/C(=N/OC)c1ccccc1COc1cccc(F)c1F | – | 90% | <90% | <90% | – | <90% | – | 90% | 90% | Activity [4]: 90% |
| CNC(=O)/C(=N/OC)c1ccccc1COc1cc(Cl)c(Cl)cc1Cl | 90% | 90% | – | – | 90% | – | – | – | – | Activity (Podosphaera fuliginea [2]): 90%; Activity [21]: 90%; Activity (Thanatephorus cucumeris [20]): 90%; Activity [17]: 90% |
| CNC(=O)/C(=N/OC)c1ccccc1COc1cc(C)cc(C)c1 | 90% | 90% | – | <90% | 90% | – | – | – | 90% | Activity [4]: 90%; Activity (Thanatephorus cucumeris [20]): 90% |
| CNC(=O)/C(=N/OC)c1ccccc1COc1ccc(C(F)(F)F)cc1 | 90% | 90% | <90% | – | – | – | – | 90% | 90% | Activity [16]: 90%; Activity [15]: 90% |
| CNC(=O)/C(=N/OC)c1ccccc1COc1ccccc1Cl | 90% | 90% | 90% | 90% | – | – | – | 90% | 90% | Activity [4]: 90% |
| CNC(=O)/C(=N/OC)c1ccccc1COc1ccccc1-c1ccccc1 | – | – | <90% | <90% | – | 90% | <90% | – | – | Activity (Podosphaera fuliginea [9]): 90%; Activity [18]: 90%; Activity (Botrytis cinerea [11]): <90% |
| CNC(=O)/C(=N/OC)c1ccccc1COc1cc(C)c(Cl)c(C)c1 | 90% | 90% | <90% | 90% | 90% | – | – | – | 90% | Activity [16]: 90% |
| CNC(=O)/C(=N/OC)c1ccccc1COc1cccc(Cl)c1Cl | 90% | – | <90% | <90% | 90% | – | – | – | – | Activity (Podosphaera fuliginea [2]): 90%; Activity [21]: 90%; Activity (Botrytis cinerea [13]): 90% |
| CNC(=O)/C(=N/OC)c1ccccc1COc1cc(F)cc(F)c1 | 90% | 90% | 90% | – | – | – | – | 90% | 90% | Activity [4]: 90%; Activity [17]: 90% |
| CNC(=O)/C(=N/OC)c1ccccc1COc1ccc(F)cc1 | – | 90% | 90% | – | – | 90% | – | 90% | 90% | Activity [4]: 90%; Activity [17]: 90% |
| C#CCOc1ccccc1OCc1ccccc1/C(=N\OC)C(=O)NC | – | – | <90% | <90% | – | 90% | <90% | – | – | Activity (Podosphaera fuliginea [9]): 90%; Activity [18]: 90%; Activity (Botrytis cinerea [11]): <90% |
| CNC(=O)/C(=N/OC)c1ccccc1COc1c(C)cc(C)cc1C | – | – | <90% | <90% | – | 90% | 90% | 90% | – | Activity (Podosphaera fuliginea [9]): 90%; Activity (Botrytis cinerea [13]): 90% |
